Source: patent US8969345B2, “Dibenzooxepin derivative” (Kyowa Hakko Kirin Co., Ltd., priority 2011, dated 2015)

Experiments:
[1] = target: T1, GAL4-PPAR γ chimeric nuclear receptor (human PPAR γ ligand binding domain) (Homo sapiens, UniProt P37231); experiment: PPAR γ transactivation assay by transient gene transfer (GAL4-PPAR γ chimeric receptor, luciferase reporter, HEK293EBNA cells); assay type: cell-based; conditions: concentration showing 50% of efficacy (maximum activity rate relative to pioglitazone = 100%), 24 hr
T1 construct: expressed in transfected cells; host or cells: HEK293EBNA cells, transient transfection with SuperFect
T1 sequence (P37231 174-475 isoform P37231-2): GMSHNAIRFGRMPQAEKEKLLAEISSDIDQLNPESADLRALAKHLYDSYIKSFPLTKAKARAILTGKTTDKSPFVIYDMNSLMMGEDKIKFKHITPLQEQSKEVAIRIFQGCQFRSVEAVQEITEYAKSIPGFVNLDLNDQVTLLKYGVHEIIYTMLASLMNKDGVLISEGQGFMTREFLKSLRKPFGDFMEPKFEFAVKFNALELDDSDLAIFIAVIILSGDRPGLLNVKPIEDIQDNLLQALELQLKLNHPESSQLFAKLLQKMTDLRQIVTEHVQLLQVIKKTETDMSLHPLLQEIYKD
Description: The agonist activity of the test compound to PPAR γ was determined by a transactivation assay method using a chimeric nuclear receptor of a DNA binding region of a yeast transcription factor GAL4 and a PPAR γ ligand binding region. Specifically, the PPAR γ agonist activity of the test compound was evaluated by the following method based on the method of Lehmann et al. (J Biol. Chem., 1995, vol. 270, page 12953).
HEK293EBNA cells cultured in Dulbecco's Modified Eagle medium (Invitrogen) containing 10 v/v % fetal bovine serum (Invitrogen) were used. 30 mL of the above-mentioned cells (density: 1×10^5 cells/mL) were inoculated in a […] (Iwaki Glass), and cultured overnight. Using SuperFect Transfection Reagent (QIAGEN), a plasmid expressing a GAL4-PPAR γ chimeric nuclear receptor fusing 174-475 amino acids, which are human PPAR γ ligand binding domain, and 1-147 amino acids, which are GAL4 DNA binding domain, and a reporter plasmid expressing a GAL4 responsive luciferase were transiently introduced into the cells at a proportion of 4:1. After 5 hr from transfection, the cells were detached from the culture dish, and the detached cells (density: 2×10^4 cells/mL) were inoculated by 100 μL in each well of a 96 well white plate (SUMITOMO BAKELITE), and cultured overnight. The medium was removed, the test compound diluted in various concentrations with serum-free Dulbecco's Modified Eagle medium was added by 100 μL, and the mixture was reacted under a 5% carbon dioxide gas stream (5% CO2) at 37° C. for 24 hr. On the other hand, as a positive control, 10 μmol/L of pioglitazone (100 μL) was added, and the mixture was reacted under a 5% carbon dioxide gas stream (5% CO2) at 37° C. for 24 hr. As a substrate of luciferase, 100 μL of Steady-Glo (Promega) was added to each well and the mixture was thoroughly stirred. Immediately thereafter, the chemical luminescence due to luciferase was measured using TopCount NTX (Packard).
The agonist activity (activity rate (%)) of the test compound to PPAR γ was calculated according to the following formula, as a relative activity when the agonist activity on addition of pioglitazone ([…]) was 100%.

[2] = Metabolic stability evaluation in human liver microsome; assay type: in vitro ADME; conditions: liver microsomes, pH 7.4; human liver microsome 0.2 mg/mL protein, test compound 1 μmol/L, β-NADPH, 37° C., 30 min; average of two samples; read-out: hCLint (converted)
Description: Human liver microsome (pool of 50 donors) was purchased from XenoTech. A reaction mixture containing phosphate buffer (100 mmol/L, pH 7.4), ethylenediamine tetraacetic acid (0.1 mmol/L), magnesium chloride (6 mmol/L), human liver microsome (0.2 mg/mL protein) and test compound (1 μmol/L) was prepared. The reaction mixture was preincubated at 37° C. for 5 min, β-NADPH (1 mmol/L) was added and the mixture was incubated at 37° C. for 30 min. The protein was removed with acetonitrile from the sample after the reaction and the sample was measured by LC-MS/MS. The ratio of the organic solvent in the reaction mixture was set to about 0.5%, and the reaction was performed in 2 samples.
The elimination rate constant (ke) was calculated from the linear regression of the logarithm plot of the residual ratio of the test compound and at 30 min after the reaction, and the liver inherent clearance (Cint) was calculated by the following formula.
[formula] ke: elimination rate constant (1/h) a: concentration (mg/mL) of liver microsome in the reaction mixture b: liver microsome amount per liver unit weight (32.3 mg/g liver) c: liver weight per unit body weight (25.7 g liver/kg body weight) Each test compound was tested in two samples, and the average thereof was calculated.

- EC50 [1]: 0.0335 µM
- CLint scaled at 1 μmol/L [2]: 31.7 mL/min/kg
SMILES: C/C(=C1/c2ccc(Cn3c(CN(C)C)nc4ccccc43)cc2COc2cc(F)ccc21)c1noc(=O)[nH]1 [Compound 4a, (E)-3-{1-[8-({2-[(dimethylamino)methyl]-1H-benzo[d]imidazol-1-yl}methyl)-3-fluorodibenzo[b,e]oxepin-11(6H)-ylidene]ethyl}-1,2,4-oxadiazol-5(4H)-one]
